The values that follow come from patent US20230365592A1 (Agios Pharmaceuticals, Inc., priority 2022, published 2023).

The target in the assay is T1, human PAH with the R408W mutation (Homo sapiens, UniProt P00439, R408W).
T1 construct: expressed in transfected cells
T1 sequence (P00439 1-452 R408W): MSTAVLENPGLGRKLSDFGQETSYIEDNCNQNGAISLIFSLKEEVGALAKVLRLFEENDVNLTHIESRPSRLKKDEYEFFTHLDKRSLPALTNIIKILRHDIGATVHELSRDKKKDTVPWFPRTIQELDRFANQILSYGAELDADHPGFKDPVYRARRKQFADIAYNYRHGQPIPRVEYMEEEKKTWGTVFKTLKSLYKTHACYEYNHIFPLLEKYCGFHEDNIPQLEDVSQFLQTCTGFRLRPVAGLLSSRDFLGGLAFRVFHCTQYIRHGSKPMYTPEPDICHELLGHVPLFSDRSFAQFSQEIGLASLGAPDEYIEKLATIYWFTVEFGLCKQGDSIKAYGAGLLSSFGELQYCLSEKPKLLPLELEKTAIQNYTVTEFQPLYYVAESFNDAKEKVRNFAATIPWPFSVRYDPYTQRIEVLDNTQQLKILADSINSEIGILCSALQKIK
Put plainly: Cell Based Phenylalanine Flux Assay.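 Further: after compound treatment, cells received sepiapterin plus isotope-labelled Phenylalanine for 4 hours, then labelled Tyrosine in the medium was quantified, 10-point 2-fold dilution series run in duplicate.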 The note with it: A375 cells expressing human PAH R408W; 24 hrs compound incubation; 13C-Tyrosine by LC-MS; average where tested multiple times; read-out: AC50.

Take `FC(F)(F)c1ccc(N2CCc3[nH]cnc3[C@@H]2c2cc3c(C4CC4)cccn3n2)nc1` [Example 2171, (R)-4-(4-cyclopropylpyrazolo[1,5-a]pyridin-2-yl)-5-(5-(trifluoromethyl)pyridin-2-yl)-4,5,6,7-tetrahydro-1H-imidazo[4,5-c]pyridine]: the AC50 was over 5 µM.

Take `c1cnc(N2CCc3[nH]cnc3[C@H]2c2cc3c(C4CC4)cccn3n2)nc1` [Example 2172, (S)-4-(4-cyclopropylpyrazolo[1,5-a]pyridin-2-yl)-5-(pyrimidin-2-yl)-4,5,6,7-tetrahydro-1H-imidazo[4,5-c]pyridine]: the AC50 is under 0.5 µM.

For `c1cnc(N2CCc3[nH]cnc3[C@@H]2c2cc3c(C4CC4)cccn3n2)nc1` [Example 2173, (R)-4-(4-cyclopropylpyrazolo[1,5-a]pyridin-2-yl)-5-(pyrimidin-2-yl)-4,5,6,7-tetrahydro-1H-imidazo[4,5-c]pyridine], the AC50 was in the range of 1 to 5 µM.

For the molecule `FC(F)(F)c1cnc(N2CCc3[nH]cnc3[C@H]2c2cc3c(C4CC4)cccn3n2)nc1` [Example 2174, (S)-4-(4-cyclopropylpyrazolo[1,5-a]pyridin-2-yl)-5-(5-(trifluoromethyl)pyrimidin-2-yl)-4,5,6,7-tetrahydro-1H-imidazo[4,5-c]pyridine], the AC50 is under 0.5 µM.

As to `FC(F)(F)c1cnc(N2CCc3[nH]cnc3[C@@H]2c2cc3c(C4CC4)cccn3n2)nc1` [Example 2175, (R)-4-(4-cyclopropylpyrazolo[1,5-a]pyridin-2-yl)-5-(5-(trifluoromethyl)pyrimidin-2-yl)-4,5,6,7-tetrahydro-1H-imidazo[4,5-c]pyridine], the half-maximal activity concentration (AC50) is over 5 µM.

On to `Fc1cccn2nc([C@H]3c4nc[nH]c4CCN3c3nnc(-c4ccncn4)o3)cc12` [Example 2179, (R)-2-(4-(4-fluoropyrazolo[1,5-a]pyridin-2-yl)-1,4,6,7-tetrahydro-5H-imidazo[4,5-c]pyridin-5-yl)-5-(pyrimidin-4-yl)-1,3,4-oxadiazole], for which the AC50 is over 5 µM.

As to `CC(C)c1cccn2nc([C@@H]3c4nc[nH]c4CCN3c3nnc(-c4ccncn4)o3)cc12` [Example 2180, (S)-2-(4-(4-isopropylpyrazolo[1,5-a]pyridin-2-yl)-1,4,6,7-tetrahydro-5H-imidazo[4,5-c]pyridin-5-yl)-5-(pyrimidin-4-yl)-1,3,4-oxadiazole], the AC50 fell in the range of 0.5 to 1 µM.

As to `CC(C)c1cccn2nc([C@H]3c4nc[nH]c4CCN3c3nnc(-c4ccncn4)o3)cc12` [Example 2181, (R)-2-(4-(4-isopropylpyrazolo[1,5-a]pyridin-2-yl)-1,4,6,7-tetrahydro-5H-imidazo[4,5-c]pyridin-5-yl)-5-(pyrimidin-4-yl)-1,3,4-oxadiazole], the AC50 was over 5 µM.

For the molecule `Clc1cccn2nc([C@H]3c4nc[nH]c4CCN3c3nnc(-c4ccncn4)o3)cc12` [Example 2183, (R)-2-(4-(4-chloropyrazolo[1,5-a]pyridin-2-yl)-1,4,6,7-tetrahydro-5H-imidazo[4,5-c]pyridin-5-yl)-5-(pyrimidin-4-yl)-1,3,4-oxadiazole], the AC50 was over 5 µM.

Turning to `CC(C)c1cccn2nc([C@@H]3c4nc[nH]c4CCN3c3ncc(C(F)(F)F)cn3)cc12` [Example 2185, (S)-4-(4-isopropylpyrazolo[1,5-a]pyridin-2-yl)-5-(5-(trifluoromethyl)pyrimidin-2-yl)-4,5,6,7-tetrahydro-1H-imidazo[4,5-c]pyridine], the AC50 was under 0.5 µM.

With `Cc1nnc(N2CCc3[nH]cnc3[C@H]2c2cc3c(C4CC4)cccn3n2)o1` [Example 2187, (S)-2-(4-(4-cyclopropylpyrazolo[1,5-a]pyridin-2-yl)-1,4,6,7-tetrahydro-5H-imidazo[4,5-c]pyridin-5-yl)-5-methyl-1,3,4-oxadiazole], the AC50 is under 0.5 µM.

`Cc1cccn2nc([C@@H]3c4nc[nH]c4CCN3c3nnc(C4(C)CC4)o3)cc12` [Example 2189, (S)-2-(1-methylcyclopropyl)-5-(4-(4-methylpyrazolo[1,5-a]pyridin-2-yl)-1,4,6,7-tetrahydro-5H-imidazo[4,5-c]pyridin-5-yl)-1,3,4-oxadiazole]: the concentration at half-maximal activity (AC50) lay in the range of 0.5 to 1 µM.

In the case of `CC(F)(F)c1nnc(N2CCc3[nH]cnc3[C@H]2c2cc3ccccn3n2)o1` [Example 2191, (S)-2-(1,1-difluoroethyl)-5-(4-(pyrazolo[1,5-a]pyridin-2-yl)-1,4,6,7-tetrahydro-5H-imidazo[4,5-c]pyridin-5-yl)-1,3,4-oxadiazole], the concentration at half-maximal activity (AC50) was 0.5 to 1 µM.

As to `Cc1cccn2nc([C@@H]3c4nc[nH]c4CCN3c3nnc(C(C)(F)F)o3)cc12` [Example 2193, (S)-2-(1,1-difluoroethyl)-5-(4-(4-methylpyrazolo[1,5-a]pyridin-2-yl)-1,4,6,7-tetrahydro-5H-imidazo[4,5-c]pyridin-5-yl)-1,3,4-oxadiazole], the AC50 was under 0.5 µM.

On to `CC(F)(F)c1nnc(N2CCc3[nH]cnc3[C@H]2c2cc3c(C(F)(F)F)cccn3n2)o1` [Example 2195, (S)-2-(1,1-difluoroethyl)-5-(4-(4-(trifluoromethyl)pyrazolo[1,5-a]pyridin-2-yl)-1,4,6,7-tetrahydro-5H-imidazo[4,5-c]pyridin-5-yl)-1,3,4-oxadiazole], for which the AC50 is under 0.5 µM.

Turning to `CC(F)(F)c1nnc(N2CCc3[nH]cnc3[C@H]2c2cc3c(F)cccn3n2)o1` [Example 2197, (S)-2-(1,1-difluoroethyl)-5-(4-(4-fluoropyrazolo[1,5-a]pyridin-2-yl)-1,4,6,7-tetrahydro-5H-imidazo[4,5-c]pyridin-5-yl)-1,3,4-oxadiazole], the AC50 is 0.5 to 1 µM.

In the case of `Clc1cccn2nc([C@@H]3c4nc[nH]c4CCN3c3nnc(-c4cccnn4)o3)cc12` [Example 2198, (S)-2-(4-(4-chloropyrazolo[1,5-a]pyridin-2-yl)-1,4,6,7-tetrahydro-5H-imidazo[4,5-c]pyridin-5-yl)-5-(pyridazin-3-yl)-1,3,4-oxadiazole], the AC50 lay in the range of 0.5 to 1 µM.

`COc1cccn2nc([C@@H]3c4nc[nH]c4CCN3c3ncc(C(F)(F)F)cn3)cc12` [Example 2200, (S)-4-(4-methoxypyrazolo[1,5-a]pyridin-2-yl)-5-(5-(trifluoromethyl)pyrimidin-2-yl)-4,5,6,7-tetrahydro-1H-imidazo[4,5-c]pyridine]: the AC50 is under 0.5 µM.

In the case of `COc1cccn2nc([C@H]3c4nc[nH]c4CCN3c3ncc(C(F)(F)F)cn3)cc12` [Example 2201, (R)-4-(4-methoxypyrazolo[1,5-a]pyridin-2-yl)-5-(5-(trifluoromethyl)pyrimidin-2-yl)-4,5,6,7-tetrahydro-1H-imidazo[4,5-c]pyridine], the AC50 is over 5 µM.

Turning to `CC(F)(F)c1nnc(N2CCc3[nH]cnc3[C@@H]2c2cc3c(C(F)F)cccn3n2)o1` [Example 2202, (R)-2-(1,1-difluoroethyl)-5-(4-(4-(difluoromethyl)pyrazolo[1,5-a]pyridin-2-yl)-1,4,6,7-tetrahydro-5H-imidazo[4,5-c]pyridin-5-yl)-1,3,4-oxadiazole], the AC50 was over 5 µM.

For the molecule `CC(F)(F)c1nnc(N2CCc3[nH]cnc3[C@H]2c2cc3c(C(F)F)cccn3n2)o1` [Example 2203, (S)-2-(1,1-difluoroethyl)-5-(4-(4-(difluoromethyl)pyrazolo[1,5-a]pyridin-2-yl)-1,4,6,7-tetrahydro-5H-imidazo[4,5-c]pyridin-5-yl)-1,3,4-oxadiazole], the half-maximal activity concentration (AC50) is under 0.5 µM.

Turning to `CC(F)(F)c1nnc(N2CCc3[nH]cnc3[C@H]2c2cc3c(C4CC4)cccn3n2)o1` [Example 2205, (S)-2-(4-(4-cyclopropylpyrazolo[1,5-a]pyridin-2-yl)-1,4,6,7-tetrahydro-5H-imidazo[4,5-c]pyridin-5-yl)-5-(1,1-difluoroethyl)-1,3,4-oxadiazole], the AC50 is under 0.5 µM.

Take `Cc1ncccc1-c1nnc(N2CCc3[nH]cnc3[C@@H]2c2cc3c(C)cccn3n2)o1` [Example 2207, (R)-2-(4-(4-methylpyrazolo[1,5-a]pyridin-2-yl)-1,4,6,7-tetrahydro-5H-imidazo[4,5-c]pyridin-5-yl)-5-(2-methylpyridin-3-yl)-1,3,4-oxadiazole]: the AC50 was over 5 µM.

For the molecule `FC(F)c1nnc(N2CCc3[nH]cnc3[C@@H]2c2cc3cccc(C(F)F)n3n2)o1` [Example 2220, (R)-2-(difluoromethyl)-5-(4-(7-(difluoromethyl)pyrazolo[1,5-a]pyridin-2-yl)-1,4,6,7-tetrahydro-5H-imidazo[4,5-c]pyridin-5-yl)-1,3,4-oxadiazole], the AC50 is over 5 µM.

With `FC(F)c1nnc(N2CCc3[nH]cnc3[C@H]2c2cc3cccc(C(F)F)n3n2)o1` [Example 2221, (S)-2-(difluoromethyl)-5-(4-(7-(difluoromethyl)pyrazolo[1,5-a]pyridin-2-yl)-1,4,6,7-tetrahydro-5H-imidazo[4,5-c]pyridin-5-yl)-1,3,4-oxadiazole], the AC50 fell in the range of 1 to 5 µM.

Take `O=C([C@H]1CC1(F)F)N1CCc2[nH]cnc2[C@H]1c1cc2c(F)cccn2n1` [Example 2223, ((R)-2,2-difluorocyclopropyl)((S)-4-(4-fluoropyrazolo[1,5-a]pyridin-2-yl)-1,4,6,7-tetrahydro-5H-imidazo[4,5-c]pyridin-5-yl)methanone]: the half-maximal activity concentration (AC50) was 1 to 5 µM.

For `c1cc(C2CC2)c2cc([C@H]3c4nc[nH]c4CCN3c3cnccn3)nn2c1` [Example 2224, (R)-4-(4-cyclopropylpyrazolo[1,5-a]pyridin-2-yl)-5-(pyrazin-2-yl)-4,5,6,7-tetrahydro-1H-imidazo[4,5-c]pyridine], the AC50 is 1 to 5 µM.

What is called AC50 is the concentration at which the activity in the assay is half-maximal.
